Results taken from ChEMBL document CHEMBL5365513, “Discovery of Selective Tertiary Amide Inhibitors of Cyclin-Dependent Kinase 2 (CDK2)” (ACS Med Chem Lett, 2023).
In brackets after ≈: the same amount, converted by molar mass. Activity calls are given as the source filed them. No cut-off for these calls is given here.

What was measured:
[1] = Metabolic stability in mouse liver microsomes assessed as clearance at 1 uM incubated upto 180 mins by LC/MS-MS analysis; format: ADME, Microsome
[2] = Metabolic stability in human liver microsomes assessed as clearance at 1 uM incubated upto 180 mins by LC/MS-MS analysis; format: ADME, Microsome
[3] = target: Cyclin-dependent kinase 2/cyclin E1 (Homo sapiens, UniProt P24941); assay: Binding affinity to CDK2/Cyclin E1 (unknown origin) using Ulight-MBP as substrate assessed as inhibition constant preincubated for 30 mins followed by substrate addition measured after 90 mins in presence of ATP by TR-FRET assay; format: protein-complex assay
[4] = Selectivity ratio of Ki for CDK4/Cyclin D3 (unknown origin) to Ki for CDK2/Cyclin E1 (unknown origin)
[5] = Antiproliferative activity against human OVISE cells assessed as inhibition of cell division incubated for 16 hrs by EdU incorporation assay; format: functional, cell-based
[6] = Selectivity ratio of IC50 for human SK-OV-3 cells to IC50 for human OVISE cells; format: functional
[7] = Apparent permeability across apical to basolateral side in MDCK cells at 5 uM measured for 60 to 180 mins by LC-MS/MS analysis; format: ADME, cell-based, Canis lupus familiaris; details: dog, time 60-180 min
[8] = Selectivity ratio of Ki for ERK2 (unknown origin) to Ki for CDK2/Cyclin E1 (unknown origin)
[9] = Half life in CD-1 mouse at 1 mg/kg, iv measured for 5 mins by LC-MS/MS analysis; format: ADME, organism-based; details: in vivo; for half-life: CD-1, mouse
[10] = Volume of distribution at steady state in CD-1 mouse at 1 mg/kg, iv measured for 5 mins by LC-MS/MS analysis; format: ADME, organism-based; details: in vivo; for Vd: CD-1, mouse, read-out: Vdss
[11] = Lipophilicity, logD of compound at pH 7.4; format: physicochemical; details: buffer
MDR1 = assay: Efflux ratio of apparent permeability across basolateral to apical side to apical to basolateral side in MDCK-MDR1 cells at 5 uM measured for 60 to 180 mins by LC-MS/MS analysis; format: ADME, cell-based, Canis lupus familiaris; details: dog, time 60-180 min
[12] = Kinetic solubility of compound; format: physicochemical; details: read-out: Kinetic_solubility
[13] = Protein binding in human plasma assessed as unbound fraction incubated for 24 hrs by HPLC analysis; format: ADME, cell-free
[14] = AUC (infinity) in CD-1 mouse at 50 mg/kg, po measured for 24 hrs by LC-MS/MS analysis; format: ADME, organism-based; parameters: time 24 hrs, dose 50 mg/kg, route po; details: in vivo
[15] = Oral bioavailability in CD-1 mouse at 50 mg/kg measured for 24 hrs by LC-MS/MS analysis; format: ADME, organism-based; details: in vivo
[16] = target: Cyclin-dependent kinase 1 (Homo sapiens) (UniProt P06493); assay: Inhibition of CDK1 (unknown origin) at 0.1 uM
OVCAR-3 [17] = assay: Antitumor activity against human OVCAR-3 cells xenografted in C.B-17 SCID.bg mouse assessed as tumor growth inhibition at 80 mg/kg, po qd treated for 3 days relative to control; format: functional; details: OVCAR-3, 72 h, time 3 day, read-out: TGI
[18] = Clearance in CD-1 mouse at 1 mg/kg, iv measured for 5 mins by LC-MS/MS analysis; format: ADME, organism-based; details: in vivo
[19] = target: Mitogen-activated protein kinase 1 (Homo sapiens, UniProt P28482); assay: Binding affinity to ERK2 (unknown origin) using Ulight-MBP as substrate assessed as inhibition constant preincubated for 30 mins followed by substrate addition measured after 90 mins in presence of ATP by TR-FRET assay
[20] = Selectivity ratio of Ki for CDK1/Cyclin A2 (unknown origin) to Ki for CDK2/Cyclin E1 (unknown origin)
OVCAR-3 [21] = assay: Antitumor activity against human OVCAR-3 cells xenografted in C.B-17 SCID.bg mouse assessed as tumor growth inhibition at 125 mg/kg, po qd treated for 3 days relative to control; format: functional; details: OVCAR-3, 72 h, time 3 day, read-out: TGI
OVCAR-3 [22] = assay: Antitumor activity against human OVCAR-3 cells xenografted in C.B-17 SCID.bg mouse assessed as tumor growth inhibition at 50 mg/kg, po bid treated for 3 days relative to control; format: functional; details: OVCAR-3, 72 h, time 3 day, read-out: TGI

Mitogen-activated protein kinase 1, sequence (P28482 whole entry): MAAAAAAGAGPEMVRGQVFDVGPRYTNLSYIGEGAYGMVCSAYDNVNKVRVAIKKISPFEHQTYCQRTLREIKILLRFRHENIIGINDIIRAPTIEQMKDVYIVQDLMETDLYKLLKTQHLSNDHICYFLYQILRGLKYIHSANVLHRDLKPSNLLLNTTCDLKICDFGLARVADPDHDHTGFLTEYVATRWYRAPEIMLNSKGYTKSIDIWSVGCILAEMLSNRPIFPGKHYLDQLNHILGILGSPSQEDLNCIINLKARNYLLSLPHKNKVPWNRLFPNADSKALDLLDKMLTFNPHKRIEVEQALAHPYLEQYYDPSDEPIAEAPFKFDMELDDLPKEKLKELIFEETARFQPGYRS
Cyclin-dependent kinase 1 (Homo sapiens), sequence (P06493 whole entry, looked up): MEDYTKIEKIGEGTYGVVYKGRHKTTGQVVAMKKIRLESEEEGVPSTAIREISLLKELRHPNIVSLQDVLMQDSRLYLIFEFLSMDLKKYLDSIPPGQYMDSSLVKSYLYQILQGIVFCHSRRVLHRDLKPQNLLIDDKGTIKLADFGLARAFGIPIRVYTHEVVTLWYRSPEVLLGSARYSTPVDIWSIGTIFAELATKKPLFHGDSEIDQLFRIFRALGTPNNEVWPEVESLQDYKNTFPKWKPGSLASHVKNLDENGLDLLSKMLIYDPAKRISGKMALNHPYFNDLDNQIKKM

SMILES | CLhep predicted at 1 µM [1] | CLhep predicted at 1 µM [2] | Ki [3] | Ratio Ki [4] | IC50 [5] | Ratio IC50 [6] | Papp A→B at 5 µM [7] | Ratio Ki [8] | further results
CNS(=O)(=O)c1ccc(Nc2ncc3ccc(C(=O)N4C[C@@H](F)C[C@@H]4C)nc3n2)c(C)c1 | 19 mL/min/kg | 12 mL/min/kg | 0.63 nM | 270 | 250 nM | 48 | 1.6 ×10⁻⁶ cm/s | – | –
CNS(=O)(=O)c1ccc(Nc2ncc3ccc(C(=O)N4C[C@@H](O)[C@@H]4C)nc3n2)c(F)c1 | < 14 mL/min/kg | < 3.9 mL/min/kg | 1 nM | 89 | 430 nM | 47 | < 1 ×10⁻⁶ cm/s | – | –
O=C(c1ccc2cnc(NC3CCOCC3)cc2n1)N1CCCCCC1 | – | – | 240 nM | – | – | – | – | 28 | –
CNS(=O)(=O)c1ccc(Nc2ncc3ccc(C(=O)N4CC[C@@H]4C)nc3n2)c(F)c1 | 50 mL/min/kg | 18 mL/min/kg | 0.18 nM | 250 | 38 nM | 50 | 15 ×10⁻⁶ cm/s | – | t1/2 ([9]; mouse, iv, 1 mg/kg, 5 min): 17.4 min; Vdss ([10]; mouse, iv, 1 mg/kg, 5 min): 1.1 L/kg; logD [11]: 1.8; efflux ratio at 5 µM (MDR1): 13; solubility kinetic [12]: 31 µM (≈ 13.3 µg/mL); Fu [13]: 0.26%; AUC(0-inf) [14]: 11 µM·h; bioavailability [15]: 9%; inhibition [16]: Active; inhibition in vivo at 80 mg/kg (OVCAR-3 [17]): 85%
CNS(=O)(=O)c1ccc(Nc2ncc3ccc(C(=O)N4C[C@@H](C#N)[C@@H]4C)nc3n2)c(F)c1 | 53 mL/min/kg | 11 mL/min/kg | 0.44 nM | 186 | 53 nM | 83 | 5 ×10⁻⁶ cm/s | – | half-life [9]: 21.6 min; Vd [10]: 0.35 L/kg; logD [11]: 1.5; solubility kinetic [12]: 3 µM (≈ 1.37 µg/mL); Fu [13]: 0.31%; clearance [18]: 18 mL/min/kg; AUC(0-inf) [14]: 5.5 µM·h; bioavailability [15]: 3%
CNS(=O)(=O)c1ccc(Nc2ncc3ccc(C(=O)N4C[C@@H](F)C[C@@H]4C)cc3n2)c(C)c1 | 69 mL/min/kg | 16 mL/min/kg | 0.49 nM | 155 | 130 nM | 43 | 12 ×10⁻⁶ cm/s | – | –
Cc1cc(S(C)(=O)=O)ccc1Nc1ncc2ccc(C(=O)N3CCC[C@@H]3C)cc2n1 | 58 mL/min/kg | 13 mL/min/kg | 17 nM | 42 | – | – | – | 310 | –
O=C(c1ccc2cnc(NC3CCOCC3)cc2n1)N1CCCCC1 | – | – | 920 nM | – | – | – | – | 4.3 | –
C[C@@]1(O)CCC[C@H]1n1c(=O)c(C(F)F)cc2cnc(NC3CCN(S(C)(=O)=O)CC3)nc21 [EBVACICLIB] | – | – | – | – | 46 nM | – | – | – | –
CNS(=O)(=O)c1ccc(Nc2ncc3ccc(C(=O)N4C[C@@H](F)C[C@@H]4C)nc3n2)c(F)c1 | 56 mL/min/kg | 13 mL/min/kg | 1.1 nM | 155 | 260 nM | 38 | 4.9 ×10⁻⁶ cm/s | – | –
O=C(N[C@H](CO)c1ccc(Cl)c(F)c1)c1ccc2cnc(NC3CCOCC3)nc2c1 | – | – | 7.9 nM | – | – | – | – | – | Ki [19]: 0.22 nM
CNS(=O)(=O)c1ccc(Nc2ncc3ccc(C(=O)N4CCC[C@@H]4C)cc3n2)c(C)c1 | 75 mL/min/kg | 18 mL/min/kg | 0.16 nM | 813 | – | – | – | 4800 | –
CNS(=O)(=O)c1ccc(Nc2ncc3ccc(C(=O)N4C[C@@H](F)[C@@H]4C)nc3n2)c(F)c1 | 50 mL/min/kg | 17 mL/min/kg | 0.21 nM | 271 | 33 nM | 88 | 15 ×10⁻⁶ cm/s | – | –
C[C@H]1CCCN1C(=O)c1ccc2cnc(NC3CCN(S(C)(=O)=O)CC3)nc2c1 | 42 mL/min/kg | < 3.9 mL/min/kg | 71 nM | 4.2 | – | – | – | 110 | –
CNS(=O)(=O)c1ccc(Nc2ncc3ccc(C(=O)N4CCC[C@@H]4C)cc3n2)cc1 | 76 mL/min/kg | 19 mL/min/kg | 0.34 nM | 150 | – | – | – | 850 | –
O=C(N[C@H](CO)c1ccc(Cl)c(F)c1)c1ccc2cnc(NC3CCOCC3)nc2n1 | – | – | 6.5 nM | – | – | – | – | – | Ki [19]: 0.17 nM
CC1CCCCN1C(=O)c1ccc2cnc(NC3CCOCC3)cc2n1 (racemic) | – | – | 750 nM | – | – | – | – | 13 | –
COCc1cc(C(=O)Nc2cc([C@H]3CC[C@@H](OC(=O)NC(C)C)C3)[nH]n2)n(C)n1 [TEGTOCICLIB] | – | – | – | – | 160 nM | – | – | – | –
CNS(=O)(=O)c1ccc(Nc2ncc3ccc(C(=O)N4C[C@H](F)[C@@H]4C)nc3n2)c(F)c1 | 54 mL/min/kg | 19 mL/min/kg | 2.1 nM | 41 | 360 nM | 36 | 13 ×10⁻⁶ cm/s | – | –
CS(=O)(=O)N1CCC(Nc2ncc3ccc(C(=O)N4CCCC4)cc3n2)CC1 | 20 mL/min/kg | < 3.9 mL/min/kg | 9 nM | 16 | – | – | – | 330 | –
O=C(c1ccc2cnc(NC3CCOCC3)cc2n1)N1CCC1 | – | – | 13 nM | – | – | – | – | 1.8 | –
CNS(=O)(=O)c1ccc(Nc2ncc3ccc(C(=O)N4C[C@H](F)C[C@@H]4C)cc3n2)c(C)c1 | 67 mL/min/kg | 14 mL/min/kg | 8.7 nM | 72 | 1500 nM | 13 | – | – | –
O=C(N[C@H](CO)c1ccc(Cl)c(F)c1)c1ccc2cnc(NC3CCOCC3)cc2n1 | – | – | 11 nM | – | – | – | – | – | Ki [19]: 0.36 nM
C[C@H]1CCN1C(=O)c1ccc2cnc(NC3CCN(S(C)(=O)=O)CC3)nc2c1 | < 14 mL/min/kg | < 3.9 mL/min/kg | 0.13 nM | 16 | – | – | – | – | –
C[C@@H]1CCCN1C(=O)c1ccc2cnc(NC3CCN(S(C)(=O)=O)CC3)nc2c1 | 37 mL/min/kg | < 3.9 mL/min/kg | 0.17 nM | 55 | – | – | – | > 10000 | –
O=C(c1ccc2cnc(NC3CCOCC3)cc2n1)N1CCCC1 | – | – | 88 nM | – | – | – | – | 6.8 | –
CC[C@H](Nc1nc(NCc2cnc(C)cc2C)c2ncn(C(C)C)c2n1)[C@@H](C)O [CYC-065] | – | – | – | 57 | 1100 nM | – | – | – | Ratio Ki [20]: 61
C[C@H]1CCCN1C(=O)c1ccc2cnc(NC3CCN(S(N)(=O)=O)CC3)nc2c1 | 30 mL/min/kg | < 3.9 mL/min/kg | 0.18 nM | 78 | – | – | – | 2800 | –
CNS(=O)(=O)c1ccc(Nc2ncc3ccc(C(=O)N4C[C@@H](OC)[C@@H]4C)nc3n2)c(F)c1 | 51 mL/min/kg | 9.4 mL/min/kg | 0.18 nM | 178 | 25 nM | 52 | 17 ×10⁻⁶ cm/s | – | half-life [9]: 19.8 min; Vd [10]: 0.78 L/kg; logD [11]: 1.7; efflux ratio at 5 µM (MDR1): 16; solubility kinetic [12]: 33 µM (≈ 15.2 µg/mL); Fu [13]: 0.28%; clearance [18]: 39 mL/min/kg; AUC(0-inf) [14]: 13 µM·h; bioavailability [15]: 25%; inhibition [16]: Active; inhibition in vivo at 125 mg/kg (OVCAR-3 [21]): 81%; inhibition in vivo at 50 mg/kg (OVCAR-3 [22]): 112%
